# ChEMBL document CHEMBL1201862, “PubChem BioAssay data set” (2004)
# Calls of active or inactive are those of the source.
# Columns and labels:
# SUMO-activating enzyme [1] = target: T1, SUMO-activating enzyme (Homo sapiens, UniProt Q9UBT2); assay: SUMOylation inhibitor hit validation, confirmation, SUMOylation inhibitor project, biochemical, AlphaScreen (AID 2018); format: functional
# Large T antigen = Large T antigen (Simian virus 40, UniProt P03070); format: functional, Betapolyomavirus macacae;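 also: Confirmatory-stage PubChem screen for compounds that inhibit SV40 T antigen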
# SUMO-activating enzyme [2] = target: T1, SUMO-activating enzyme; assay: inhibitors of in vitro SUMOylation cascade, primary screen, biochemical, HTRF, uHTS (AID 2006); format: protein-complex assay
# [3] = target: Induced myeloid leukemia cell differentiation protein Mcl-1 (Homo sapiens, UniProt Q07820); format: functional
# [4] = target: Cyclin-dependent kinase 5/CDK5 activator 1 (Homo sapiens, UniProt Q00535); assay: CDK5/p35 kinase inhibitors, dose response, biochemical, cherry-picked samples, set 2 (AID 504545)
# [5] = target: Dual specificity tyrosine-phosphorylation-regulated kinase 1A (Rattus norvegicus, UniProt Q63470); format: biochemical, Homo sapiens
# [6] = target: Ras and Rab interactor 1/Tyrosine-protein kinase ABL1 (Homo sapiens, UniProt P00519+Q13671); format: functional;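 also: biochemical TR-FRET dose-response test measuring inhibition of binding between Rin1 and Abl proteins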
# A-375 [7] = assay: MITF: Counter assay: A375 proliferation Measured in Cell-Based System Using Plate Reader - 2084-03_Inhibitor_Dose_DryPowder_Activity. [Related pubchem assays (depositor defined):AID488944]; format: functional; conditions: Homo sapiens
# A-375 [8] = assay: A375 melanoma cell viability reduction, dose response, counter-screen for MITF modulator project, cherry-pick samples, set 2 (AID 540335); format: functional, cell-based; conditions: Homo sapiens
# [9] = target: Voltage-gated inwardly rectifying potassium channel KCNH2 (Homo sapiens, UniProt Q12809); conditions: Potency;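 also: confirmatory quantitative high-throughput screen measuring inhibition of hERG channel activity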
# [10] = target: Beta-adrenergic receptor kinase 1 (Homo sapiens, UniProt P25098); assay: GRK2 inhibitors displacing RNA aptamer, dose response, biochemical, flow cytometry beads, FAM-aptamer, powder set 1 (AID 588720)
# Escherichia coli = assay: microbe, parasite or virus in culture
# T1 sequence (Q9UBE0 whole entry): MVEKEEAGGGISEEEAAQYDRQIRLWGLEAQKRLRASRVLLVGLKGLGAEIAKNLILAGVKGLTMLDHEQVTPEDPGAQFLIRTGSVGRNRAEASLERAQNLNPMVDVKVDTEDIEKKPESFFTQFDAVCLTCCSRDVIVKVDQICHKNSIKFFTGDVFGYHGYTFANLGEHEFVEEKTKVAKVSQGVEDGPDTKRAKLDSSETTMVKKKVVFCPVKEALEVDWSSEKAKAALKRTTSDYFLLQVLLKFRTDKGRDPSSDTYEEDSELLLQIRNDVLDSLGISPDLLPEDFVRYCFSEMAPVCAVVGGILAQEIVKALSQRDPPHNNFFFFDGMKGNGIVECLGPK
# T1 sequence (Q9UBT2 whole entry): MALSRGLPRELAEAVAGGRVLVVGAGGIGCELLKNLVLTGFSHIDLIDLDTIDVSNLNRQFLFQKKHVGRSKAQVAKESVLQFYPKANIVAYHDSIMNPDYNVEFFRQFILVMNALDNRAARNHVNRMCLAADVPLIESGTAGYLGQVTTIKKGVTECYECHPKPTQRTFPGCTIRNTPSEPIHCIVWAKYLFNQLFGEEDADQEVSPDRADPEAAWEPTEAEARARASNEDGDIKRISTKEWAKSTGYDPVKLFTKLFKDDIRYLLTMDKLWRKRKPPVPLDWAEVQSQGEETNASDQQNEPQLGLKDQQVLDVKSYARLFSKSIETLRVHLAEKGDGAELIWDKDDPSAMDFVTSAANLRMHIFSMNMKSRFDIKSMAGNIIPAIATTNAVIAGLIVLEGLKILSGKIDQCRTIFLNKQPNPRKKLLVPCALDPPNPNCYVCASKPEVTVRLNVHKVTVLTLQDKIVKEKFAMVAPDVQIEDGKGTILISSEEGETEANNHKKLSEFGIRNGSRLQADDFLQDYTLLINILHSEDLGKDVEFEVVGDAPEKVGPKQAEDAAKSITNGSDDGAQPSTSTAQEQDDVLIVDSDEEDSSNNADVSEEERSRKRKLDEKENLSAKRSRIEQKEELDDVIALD
# Cyclin-dependent kinase 5/CDK5 activator 1, sequence (Q00535 whole entry): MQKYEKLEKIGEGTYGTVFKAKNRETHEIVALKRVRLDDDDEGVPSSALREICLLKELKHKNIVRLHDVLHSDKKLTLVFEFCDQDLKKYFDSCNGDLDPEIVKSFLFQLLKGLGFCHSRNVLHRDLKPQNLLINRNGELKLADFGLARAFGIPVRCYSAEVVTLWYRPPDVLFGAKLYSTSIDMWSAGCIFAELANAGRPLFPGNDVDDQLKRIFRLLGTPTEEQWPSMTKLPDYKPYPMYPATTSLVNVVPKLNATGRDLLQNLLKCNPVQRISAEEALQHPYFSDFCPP
# Cyclin-dependent kinase 5/CDK5 activator 1, sequence (Q15078 whole entry, further chain): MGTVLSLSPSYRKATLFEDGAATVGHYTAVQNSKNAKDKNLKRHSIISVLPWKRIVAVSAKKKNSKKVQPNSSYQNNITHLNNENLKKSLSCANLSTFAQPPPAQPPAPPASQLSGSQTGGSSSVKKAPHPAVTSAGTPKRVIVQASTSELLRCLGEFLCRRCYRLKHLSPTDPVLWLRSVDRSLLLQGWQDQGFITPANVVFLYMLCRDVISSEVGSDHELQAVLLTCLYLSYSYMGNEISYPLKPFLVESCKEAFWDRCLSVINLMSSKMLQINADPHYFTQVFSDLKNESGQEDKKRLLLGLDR
# Beta-adrenergic receptor kinase 1, sequence (P25098 whole entry): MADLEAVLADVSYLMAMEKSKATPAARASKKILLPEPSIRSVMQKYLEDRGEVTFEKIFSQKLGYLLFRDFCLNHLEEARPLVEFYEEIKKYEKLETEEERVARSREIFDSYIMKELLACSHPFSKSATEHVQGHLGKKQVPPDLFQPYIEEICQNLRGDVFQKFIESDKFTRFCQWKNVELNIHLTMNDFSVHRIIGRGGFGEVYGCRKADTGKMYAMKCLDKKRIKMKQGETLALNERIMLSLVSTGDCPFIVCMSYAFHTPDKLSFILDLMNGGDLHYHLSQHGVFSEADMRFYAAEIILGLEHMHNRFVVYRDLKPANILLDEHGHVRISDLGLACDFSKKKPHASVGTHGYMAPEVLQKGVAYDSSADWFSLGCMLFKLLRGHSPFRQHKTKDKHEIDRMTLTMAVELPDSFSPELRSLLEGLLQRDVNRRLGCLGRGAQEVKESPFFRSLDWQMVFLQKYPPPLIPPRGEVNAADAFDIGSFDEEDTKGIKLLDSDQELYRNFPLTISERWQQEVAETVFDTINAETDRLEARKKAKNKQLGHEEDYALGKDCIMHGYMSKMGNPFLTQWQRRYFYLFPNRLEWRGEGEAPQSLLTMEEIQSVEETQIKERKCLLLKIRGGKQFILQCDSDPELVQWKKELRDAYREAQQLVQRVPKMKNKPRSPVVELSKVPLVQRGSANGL
# Ras and Rab interactor 1/Tyrosine-protein kinase ABL1, sequence (P00519 whole entry): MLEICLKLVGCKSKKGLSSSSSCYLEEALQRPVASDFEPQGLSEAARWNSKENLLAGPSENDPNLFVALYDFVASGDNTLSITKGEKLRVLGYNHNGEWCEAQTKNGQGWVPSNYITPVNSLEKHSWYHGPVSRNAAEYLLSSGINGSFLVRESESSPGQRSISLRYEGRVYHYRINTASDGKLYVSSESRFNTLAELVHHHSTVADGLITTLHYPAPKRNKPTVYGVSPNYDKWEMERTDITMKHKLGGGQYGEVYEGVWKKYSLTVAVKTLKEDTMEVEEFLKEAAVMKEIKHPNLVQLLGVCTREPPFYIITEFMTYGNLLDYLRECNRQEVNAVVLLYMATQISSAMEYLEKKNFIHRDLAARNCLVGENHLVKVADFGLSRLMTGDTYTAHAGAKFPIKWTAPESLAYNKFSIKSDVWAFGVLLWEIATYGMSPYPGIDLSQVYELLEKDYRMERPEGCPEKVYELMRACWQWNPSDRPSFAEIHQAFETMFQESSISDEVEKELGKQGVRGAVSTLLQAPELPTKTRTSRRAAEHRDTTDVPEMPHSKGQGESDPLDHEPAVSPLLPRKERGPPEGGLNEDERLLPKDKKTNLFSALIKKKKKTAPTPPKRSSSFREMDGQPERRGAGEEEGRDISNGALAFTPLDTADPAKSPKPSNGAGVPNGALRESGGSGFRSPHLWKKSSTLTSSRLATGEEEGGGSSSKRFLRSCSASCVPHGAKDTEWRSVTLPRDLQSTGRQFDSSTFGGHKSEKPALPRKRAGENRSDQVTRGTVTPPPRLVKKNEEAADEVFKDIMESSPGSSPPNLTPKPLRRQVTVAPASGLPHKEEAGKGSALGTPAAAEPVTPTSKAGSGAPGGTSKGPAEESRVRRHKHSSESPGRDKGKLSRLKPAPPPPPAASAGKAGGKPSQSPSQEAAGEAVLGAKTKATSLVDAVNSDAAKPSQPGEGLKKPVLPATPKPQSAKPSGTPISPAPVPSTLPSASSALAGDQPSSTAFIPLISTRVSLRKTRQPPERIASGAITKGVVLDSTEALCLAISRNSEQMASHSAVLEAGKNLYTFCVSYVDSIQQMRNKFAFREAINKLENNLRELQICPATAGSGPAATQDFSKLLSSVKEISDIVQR
# Ras and Rab interactor 1/Tyrosine-protein kinase ABL1, sequence (Q13671 whole entry): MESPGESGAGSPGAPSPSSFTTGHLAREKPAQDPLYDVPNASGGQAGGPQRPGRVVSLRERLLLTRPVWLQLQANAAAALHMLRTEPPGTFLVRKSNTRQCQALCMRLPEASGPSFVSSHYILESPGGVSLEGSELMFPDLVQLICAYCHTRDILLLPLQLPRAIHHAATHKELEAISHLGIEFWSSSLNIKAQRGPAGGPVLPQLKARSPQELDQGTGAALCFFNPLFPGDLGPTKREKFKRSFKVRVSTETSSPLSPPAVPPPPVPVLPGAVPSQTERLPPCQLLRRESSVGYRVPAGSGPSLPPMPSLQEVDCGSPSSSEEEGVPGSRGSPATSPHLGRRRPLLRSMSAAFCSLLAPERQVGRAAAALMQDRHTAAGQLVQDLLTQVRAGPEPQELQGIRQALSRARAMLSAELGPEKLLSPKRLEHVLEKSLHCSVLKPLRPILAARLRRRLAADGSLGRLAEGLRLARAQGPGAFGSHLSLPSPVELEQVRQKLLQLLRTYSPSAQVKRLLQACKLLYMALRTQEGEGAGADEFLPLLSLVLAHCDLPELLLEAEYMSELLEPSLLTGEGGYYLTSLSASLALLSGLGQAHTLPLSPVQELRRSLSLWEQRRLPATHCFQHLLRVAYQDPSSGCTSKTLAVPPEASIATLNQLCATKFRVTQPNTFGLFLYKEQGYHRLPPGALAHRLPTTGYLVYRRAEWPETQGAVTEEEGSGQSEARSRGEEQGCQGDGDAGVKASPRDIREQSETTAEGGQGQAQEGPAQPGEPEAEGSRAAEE
# Large T antigen, sequence (P03070 whole entry): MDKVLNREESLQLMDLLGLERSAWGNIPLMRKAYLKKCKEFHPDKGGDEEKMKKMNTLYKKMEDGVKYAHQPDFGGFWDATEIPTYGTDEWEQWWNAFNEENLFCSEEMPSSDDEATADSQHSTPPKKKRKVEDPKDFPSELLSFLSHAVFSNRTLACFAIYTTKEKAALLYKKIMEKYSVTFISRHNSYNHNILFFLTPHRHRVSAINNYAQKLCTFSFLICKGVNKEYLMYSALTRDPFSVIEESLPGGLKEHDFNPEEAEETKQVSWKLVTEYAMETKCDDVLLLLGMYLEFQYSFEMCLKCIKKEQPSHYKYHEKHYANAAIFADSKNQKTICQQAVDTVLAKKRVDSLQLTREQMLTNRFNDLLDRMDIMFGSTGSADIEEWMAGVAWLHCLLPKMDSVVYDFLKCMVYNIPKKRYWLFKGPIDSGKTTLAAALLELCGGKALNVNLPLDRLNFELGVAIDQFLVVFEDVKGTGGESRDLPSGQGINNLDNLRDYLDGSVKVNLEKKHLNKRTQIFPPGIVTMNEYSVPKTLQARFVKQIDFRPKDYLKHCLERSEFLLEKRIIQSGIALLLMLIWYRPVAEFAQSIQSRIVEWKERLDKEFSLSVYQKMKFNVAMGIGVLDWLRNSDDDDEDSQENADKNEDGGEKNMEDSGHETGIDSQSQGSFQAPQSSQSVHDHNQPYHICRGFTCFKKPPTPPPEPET
smiles,measurement,setting,value
COc1cc2c(ccc3cc(OC)c(OC)c(O)c32)cc1O,IC50,SUMO-activating enzyme [1],2.89 µM (active)
same,IC50,Large T antigen,9.72 µM (active)
same,IC50,SUMO-activating enzyme [2],13.9 µM (active)
same,IC50,[3],1.95 µM (active)
same,AC50,[4],2.19 µM (active)
same,AC50,[5],0.406 µM (active)
same,IC50,[6],35.2 µM (inactive)
COc1ccc(CCC(=O)N2CCc3ccccc32)cc1,AC50,A-375 [7],> 35 µM (active)
same,AC50,A-375 [8],> 35 µM (active)
C[N+]1(C)C2CCC1CC(OC(=O)c1c[nH]c3ccccc13)C2 (configuration not stated),AC50,[9],25.1 µM (inconclusive)
CCOc1ccc(CCNC(=O)CCS(=O)(=O)c2ccc(Br)cc2)cc1OCC,EC50,[10],17.7 µM (inactive)
CCOC(=O)c1ccc(NC(=O)c2cn(CCC#N)nc2-c2ccc3c(c2)OCCO3)cc1,AC50,Escherichia coli,30.3 µM (active)
